This note sets out measurements from US20200354426A1 (MEDIMMUNE LIMITED, priority 2016, published 2020).

In one series the target is Human GLP1R (Homo sapiens, UniProt P43220). In words: cAMP activity assay in assay medium (assay 1). It counts as cell-based. Set-up: expressed in transfected cells. To be noted: assay medium; Table 4; read-out: hGLP1R EC50. From the text: (§1) Biological Activity of Peptides in Cell-Based cAMP Activity Assay (Assay 1):
(§2) All sample dilutions were made in duplicate.

The target in another series is T1, Human GlucR (Homo sapiens, UniProt P47871).
T1 construct: expressed in transfected cells
Description: cAMP activity assay in assay medium (assay 1). It counts as cell-based. To be noted: assay medium; Table 4; read-out: hGlucR EC50.
Excerpt: as §1, §2

The next series addresses T2, Human GIPr (Homo sapiens, UniProt P48546).
T2 construct: expressed in transfected cells
T2 sequence (P48546 22-466): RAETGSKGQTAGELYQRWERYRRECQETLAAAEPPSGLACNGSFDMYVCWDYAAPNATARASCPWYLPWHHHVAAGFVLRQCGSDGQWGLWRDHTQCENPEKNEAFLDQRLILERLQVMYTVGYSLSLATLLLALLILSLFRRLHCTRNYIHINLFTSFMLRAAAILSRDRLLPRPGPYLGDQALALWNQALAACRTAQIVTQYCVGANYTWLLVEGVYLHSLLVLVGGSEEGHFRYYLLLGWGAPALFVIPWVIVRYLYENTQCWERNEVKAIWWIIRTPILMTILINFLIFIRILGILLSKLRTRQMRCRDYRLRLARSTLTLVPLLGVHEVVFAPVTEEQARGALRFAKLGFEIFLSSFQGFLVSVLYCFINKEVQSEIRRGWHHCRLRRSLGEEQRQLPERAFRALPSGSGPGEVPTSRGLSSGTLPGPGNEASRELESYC
In words: cAMP activity assay in assay medium (assay 1). The series is classed as cell-based. To be noted: assay medium; Table 4; read-out: hGIPR EC50.
Excerpt: as §1, §2

Series [1] is described as follows: mouse plasma (frozen blank plasma, thawed). To be noted: 37° C., up to 48 hours.
The nature of series [2]: rat plasma (frozen blank plasma, thawed). To be noted: 37° C., up to 48 hours.

Numbered stars: 1 amine (or outer) side, 2 acyl side, 3 side chain; on linkers, the order of the positions; unused ones are H or OH. Side chains are listed from the residue outwards. Ends that are not written are not given here. Peptide text beside a SMILES is read from it. * marks the point of attachment. γGlu = O=C(O)[C@H](CCC(=O)[*:2])N[*:1]; Palmitoyl = CCCCCCCCCCCCCCCC(=O)*; Ahx = NCCCCCC(=O)O

T1 sequence (P47871 26-477): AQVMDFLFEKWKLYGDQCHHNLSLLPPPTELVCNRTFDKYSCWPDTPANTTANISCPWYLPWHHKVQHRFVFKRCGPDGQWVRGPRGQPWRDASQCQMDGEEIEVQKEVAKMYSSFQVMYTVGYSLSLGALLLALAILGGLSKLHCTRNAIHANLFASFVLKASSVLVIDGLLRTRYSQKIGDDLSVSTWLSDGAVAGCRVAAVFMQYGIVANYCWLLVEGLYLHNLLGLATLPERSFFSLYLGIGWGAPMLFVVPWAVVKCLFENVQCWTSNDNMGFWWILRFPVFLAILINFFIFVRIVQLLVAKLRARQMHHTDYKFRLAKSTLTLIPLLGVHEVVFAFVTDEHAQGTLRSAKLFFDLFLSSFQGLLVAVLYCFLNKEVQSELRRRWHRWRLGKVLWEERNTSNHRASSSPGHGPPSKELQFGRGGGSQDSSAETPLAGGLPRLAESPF
Sequence of Human GLP1R (P43220 24-463): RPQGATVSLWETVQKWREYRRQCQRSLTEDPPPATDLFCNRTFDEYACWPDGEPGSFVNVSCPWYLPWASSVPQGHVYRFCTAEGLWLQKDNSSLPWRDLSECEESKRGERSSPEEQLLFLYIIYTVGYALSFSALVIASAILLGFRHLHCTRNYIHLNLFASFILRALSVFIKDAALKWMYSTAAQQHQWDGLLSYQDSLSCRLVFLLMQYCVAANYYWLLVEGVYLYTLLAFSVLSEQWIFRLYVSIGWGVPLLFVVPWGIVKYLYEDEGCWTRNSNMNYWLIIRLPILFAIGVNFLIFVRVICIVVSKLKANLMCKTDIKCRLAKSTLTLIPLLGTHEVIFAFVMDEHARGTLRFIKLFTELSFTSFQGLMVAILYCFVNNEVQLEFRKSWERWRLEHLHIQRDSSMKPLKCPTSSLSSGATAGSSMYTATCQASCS

Regarding `CCCCCCCCCCCCCCCC(=O)N[C@@H](CCC(=O)NCCCC[C@H](NC(=O)[C@H](Cc1ccc(O)cc1)NC(=O)[C@H](CCCCN)NC(=O)[C@H](CO)NC(=O)[C@H](Cc1ccc(O)cc1)NC(=O)[C@H](CC(=O)O)NC(=O)[C@H](CO)NC(=O)[C@@H](NC(=O)[C@H](Cc1ccccc1)NC(=O)[C@@H](NC(=O)CNC(=O)[C@H](CCC(N)=O)NC(=O)[C@H](CO)NC(=O)[C@@H](N)Cc1c[nH]cn1)[C@@H](C)O)[C@@H](C)O)C(=O)N[C@@H](CC(=O)O)C(=O)N[C@@H](CO)C(=O)N[C@@H](CCC(=O)O)C(=O)N[C@@H](CCCNC(=N)N)C(=O)N[C@@H](C)C(=O)N[C@@H](CCCNC(=N)N)C(=O)N[C@@H](CC(=O)O)C(=O)N[C@@H](Cc1ccccc1)C(=O)N[C@H](C(=O)N[C@@H](CCC(=O)O)C(=O)N[C@@H](Cc1c[nH]c2ccccc12)C(=O)N[C@@H](CC(C)C)C(=O)N[C@@H](CCC(=O)O)C(=O)N[C@@H](C)C(=O)NCC(=O)NCC(N)=O)C(C)C)C(=O)O` [g836] (H-HSQGTFTSDYSKYK([γGlu-Palmitoyl])DSERARDFVEWLEAGG-NH2; N-terminus assumed), the EC50 (usually the concentration that produces a half-maximal response) on Human GLP1R was found to be 124 pM; at Human GlucR, 15.5 pM; at Human GIPr, 100000 pM.

For `CCCCCCCCCCCCCCCC(=O)N[C@@H](CCC(=O)NCCCC[C@H](NC(=O)[C@H](CO)NC(=O)[C@H](CC(=O)O)NC(=O)[C@H](CC(C)C)NC(=O)[C@H](Cc1ccc(O)cc1)NC(=O)[C@H](CCC(=O)O)NC(=O)[C@H](CO)NC(=O)[C@H](Cc1ccc(O)cc1)NC(=O)[C@H](CC(=O)O)NC(=O)[C@H](CO)NC(=O)[C@@H](NC(=O)[C@H](Cc1ccccc1)NC(=O)[C@@H](NC(=O)CNC(=O)[C@H](CCC(N)=O)NC(=O)[C@H](CO)NC(=O)[C@@H](N)Cc1c[nH]cn1)[C@@H](C)O)[C@@H](C)O)C(=O)N[C@@H](CCCNC(=N)N)C(=O)N[C@@H](C)C(=O)N[C@@H](CCCNC(=N)N)C(=O)N[C@@H](CC(=O)O)C(=O)N[C@@H](Cc1ccccc1)C(=O)N[C@H](C(=O)N[C@@H](C)C(=O)N[C@@H](Cc1c[nH]c2ccccc12)C(=O)N[C@@H](CC(C)C)C(=O)N[C@@H](CCC(=O)O)C(=O)N[C@@H](C)C(=O)NCC(=O)NCC(N)=O)C(C)C)C(=O)O` [g837] (H-HSQGTFTSDYSEYLDSK([γGlu-Palmitoyl])RARDFVAWLEAGG-NH2; N-terminus assumed), the EC50 was 467 pM at Human GLP1R, 213 pM on Human GlucR and 114000 pM at Human GIPr.

`CCCCCCCCCCCCCCCC(=O)NCCCCCC(=O)NCCCC[C@H](NC(=O)[C@H](CO)NC(=O)[C@H](CC(=O)O)NC(=O)[C@H](CC(C)C)NC(=O)[C@H](Cc1ccc(O)cc1)NC(=O)[C@H](CCC(=O)O)NC(=O)[C@H](CO)NC(=O)[C@H](Cc1ccc(O)cc1)NC(=O)[C@H](CC(=O)O)NC(=O)[C@H](CO)NC(=O)[C@@H](NC(=O)[C@H](Cc1ccccc1)NC(=O)[C@@H](NC(=O)CNC(=O)[C@H](CCC(N)=O)NC(=O)[C@H](CO)NC(=O)[C@@H](N)Cc1c[nH]cn1)[C@@H](C)O)[C@@H](C)O)C(=O)N[C@@H](CCCNC(=N)N)C(=O)N[C@@H](C)C(=O)N[C@@H](CCCNC(=N)N)C(=O)N[C@@H](CC(=O)O)C(=O)N[C@@H](Cc1ccccc1)C(=O)N[C@H](C(=O)N[C@@H](C)C(=O)N[C@@H](Cc1c[nH]c2ccccc12)C(=O)N[C@@H](CC(C)C)C(=O)N[C@@H](CCC(=O)O)C(=O)N[C@@H](C)C(=O)NCC(=O)NCC(N)=O)C(C)C` [g838] (H-HSQGTFTSDYSEYLDSK([Ahx-Palmitoyl])RARDFVAWLEAGG-NH2; N-terminus assumed): the EC50 on Human GLP1R turned out to be 23.7 pM; at Human GlucR, 5.68 pM; on Human GIPr, 84300 pM.

Take `CCCCCCCCCCCCCCCC(=O)N[C@@H](CCC(=O)NCCCC[C@H](NC(=O)[C@H](CCCNC(=N)N)NC(=O)[C@H](CO)NC(=O)[C@H](Cc1ccc(O)cc1)NC(=O)[C@H](CC(=O)O)NC(=O)[C@H](CO)NC(=O)[C@@H](NC(=O)[C@H](Cc1ccccc1)NC(=O)[C@@H](NC(=O)CNC(=O)[C@H](CCC(N)=O)NC(=O)[C@H](CO)NC(=O)[C@@H](N)Cc1c[nH]cn1)[C@@H](C)O)[C@@H](C)O)C(=O)N[C@@H](CC(C)C)C(=O)N[C@@H](CC(=O)O)C(=O)N[C@@H](CO)C(=O)N[C@@H](CCC(=O)O)C(=O)N[C@@H](CCCNC(=N)N)C(=O)N[C@@H](C)C(=O)N[C@@H](CCCNC(=N)N)C(=O)N[C@@H](CC(=O)O)C(=O)N[C@@H](Cc1ccccc1)C(=O)N[C@H](C(=O)N[C@@H](C)C(=O)N[C@@H](Cc1c[nH]c2ccccc12)C(=O)N[C@@H](CC(C)C)C(=O)N[C@H](C(=O)N[C@@H](C)C(=O)NCC(=O)NCC(=O)O)C(C)C)C(C)C)C(=O)O` [g842] (H-HSQGTFTSDYSRK([γGlu-Palmitoyl])LDSERARDFVAWLVAGG-OH; N-terminus assumed): the EC50 is 51.2 pM at Human GLP1R, 8.31 pM on Human GlucR and 88300 pM at Human GIPr.

Turning to `CCCCCCCCCCCCCCCC(=O)N[C@@H](CCC(=O)NCCCC[C@H](NC(=O)[C@H](Cc1ccc(O)cc1)NC(=O)[C@H](CCC(=O)O)NC(=O)[C@H](CO)NC(=O)[C@H](Cc1ccc(O)cc1)NC(=O)[C@H](CC(=O)O)NC(=O)[C@H](CO)NC(=O)[C@@H](NC(=O)[C@H](Cc1ccccc1)NC(=O)[C@@H](NC(=O)CNC(=O)[C@H](CCC(N)=O)NC(=O)[C@H](CO)NC(=O)[C@@H](N)Cc1c[nH]cn1)[C@@H](C)O)[C@@H](C)O)C(=O)N[C@@H](CC(=O)O)C(=O)N[C@@H](CO)C(=O)N[C@@H](CCC(=O)O)C(=O)N[C@@H](CCCNC(=N)N)C(=O)N[C@@H](C)C(=O)N[C@@H](CCCNC(=N)N)C(=O)N[C@@H](CC(=O)O)C(=O)N[C@@H](Cc1ccccc1)C(=O)N[C@H](C(=O)N[C@@H](C)C(=O)N[C@@H](Cc1c[nH]c2ccccc12)C(=O)N[C@@H](CC(C)C)C(=O)N[C@H](C(=O)N[C@@H](C)C(=O)NCC(=O)NCC(N)=O)C(C)C)C(C)C)C(=O)O` [g846] (H-HSQGTFTSDYSEYK([γGlu-Palmitoyl])DSERARDFVAWLVAGG-NH2; N-terminus assumed), the EC50 at Human GLP1R is 43.8 pM; on Human GlucR, 34.1 pM; on Human GIPr, 11800 pM.

As for `CCCCCCCCCCCCCCCC(=O)N[C@@H](CCC(=O)NCCCC[C@H](NC(=O)[C@H](CO)NC(=O)[C@H](CC(=O)O)NC(=O)[C@H](CC(C)C)NC(=O)[C@H](Cc1ccc(O)cc1)NC(=O)[C@H](CCCCN)NC(=O)[C@H](CO)NC(=O)[C@H](Cc1ccc(O)cc1)NC(=O)[C@H](CC(=O)O)NC(=O)[C@H](CO)NC(=O)[C@@H](NC(=O)[C@H](Cc1ccccc1)NC(=O)[C@@H](NC(=O)CNC(=O)[C@H](CCC(N)=O)NC(=O)[C@H](CO)NC(=O)[C@@H](N)Cc1c[nH]cn1)[C@@H](C)O)[C@@H](C)O)C(=O)N[C@@H](CCCNC(=N)N)C(=O)N[C@@H](C)C(=O)N[C@@H](CCCNC(=N)N)C(=O)N[C@@H](CC(=O)O)C(=O)N[C@@H](Cc1ccccc1)C(=O)N[C@H](C(=O)N[C@@H](C)C(=O)N[C@@H](Cc1c[nH]c2ccccc12)C(=O)N[C@@H](CC(C)C)C(=O)N[C@H](C(=O)N[C@@H](C)C(=O)NCC(=O)NCC(N)=O)C(C)C)C(C)C)C(=O)O` [g867] (H-HSQGTFTSDYSKYLDSK([γGlu-Palmitoyl])RARDFVAWLVAGG-NH2; N-terminus assumed), the figures for the EC50 on Human GLP1R, on Human GlucR and on Human GIPr were 44.8 pM, 7.04 pM and 41700 pM, respectively.

On to `CCCCCCCCCCCCCCCC(=O)N[C@@H](CCC(=O)NCCCC[C@H](NC(=O)[C@H](Cc1ccc(O)cc1)NC(=O)[C@H](CCC(=O)O)NC(=O)[C@H](CO)NC(=O)[C@H](Cc1ccc(O)cc1)NC(=O)[C@H](CC(=O)O)NC(=O)[C@H](CO)NC(=O)[C@@H](NC(=O)[C@H](Cc1ccccc1)NC(=O)[C@@H](NC(=O)CNC(=O)[C@H](CCC(N)=O)NC(=O)[C@H](CO)NC(=O)[C@@H](N)Cc1c[nH]cn1)[C@@H](C)O)[C@@H](C)O)C(=O)N[C@@H](CC(=O)O)C(=O)N[C@@H](CO)C(=O)N[C@@H](CCCNC(=N)N)C(=O)N[C@@H](CCCNC(=N)N)C(=O)N[C@@H](C)C(=O)N[C@@H](CCCNC(=N)N)C(=O)N[C@@H](CC(=O)O)C(=O)N[C@@H](Cc1ccccc1)C(=O)N[C@H](C(=O)N[C@@H](CCC(=O)O)C(=O)N[C@@H](Cc1c[nH]c2ccccc12)C(=O)N[C@@H](CC(C)C)C(=O)N[C@@H](CCC(=O)O)C(=O)N[C@@H](C)C(=O)NCC(=O)NCC(N)=O)C(C)C)C(=O)O` [g876] (H-HSQGTFTSDYSEYK([γGlu-Palmitoyl])DSRRARDFVEWLEAGG-NH2; N-terminus assumed), for which the EC50 at Human GLP1R came out at 86.3 pM; on Human GlucR it was 10.4 pM; at Human GIPr, 79000 pM.

Consider “HSQGTFTSDXSEYLDSERARDFVAWLEAGG-amide ×10 = K(gE-palm)”, for which the fragment found entry in series [1] is recorded as “DPP cleaved product, minor”; in series [2], “DPP cleaved product, minor”.

With “HSQGTFTSDYSKYLDSERARDFVAWLEAGG-NH2 [g840]”, the EC50 was determined as 145 pM on Human GLP1R, 5.3 pM at Human GlucR and 102000 pM at Human GIPr.

In the case of “HSQGTFTSDYSKYLDSRRAQDFVQWLVRGGKNNRNNIAK-NH2 [g321]”, the EC50 at Human GLP1R is 27.2 pM; at Human GlucR, 27.9 pM; at Human GIPr, 6410 pM.
